Patent US20050170394A1 (priority 2004, published 2005)

Target: T1, GLUT1 (Homo sapiens, UniProt P11166)
T1 sequence (P11166 1-492): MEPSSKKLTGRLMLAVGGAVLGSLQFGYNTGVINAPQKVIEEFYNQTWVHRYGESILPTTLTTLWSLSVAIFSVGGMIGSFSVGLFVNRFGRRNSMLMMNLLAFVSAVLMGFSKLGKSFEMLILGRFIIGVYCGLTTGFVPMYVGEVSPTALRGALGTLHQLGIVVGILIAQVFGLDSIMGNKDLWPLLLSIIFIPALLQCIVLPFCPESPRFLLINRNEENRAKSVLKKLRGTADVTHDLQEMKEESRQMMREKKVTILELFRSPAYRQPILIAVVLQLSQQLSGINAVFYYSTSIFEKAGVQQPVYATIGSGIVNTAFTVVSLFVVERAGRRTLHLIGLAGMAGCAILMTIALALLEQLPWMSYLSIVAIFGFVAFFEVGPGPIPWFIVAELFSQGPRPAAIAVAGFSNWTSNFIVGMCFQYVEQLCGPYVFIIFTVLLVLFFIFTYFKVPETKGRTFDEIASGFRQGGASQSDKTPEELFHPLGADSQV
Assay: not given
Settings: substrates and inhibitors of GLUT1; cited from earlier work

Compound | Reported Affinity for GLUT1
Fluorodeoxyglucose | 4 mM
O=C1O[C@H]([C@@H](O)CO)C(=O)C1=O [Dehydroascorbic Acid] | 0.8 mM
N[C@H]1C(O)O[C@H](CO)[C@@H](O)[C@@H]1O (stereo partly shown) [Glucosamine] | 9 mM
O=C[C@H](O)[C@@H](O)[C@@H](O)[C@H](O)CO [Galactose] | 4 mM
(S)-methoxy-a-methyl-2-napthalene acetic acid amido galacto pyranose | 1 mM
O=C(CCc1ccc(O)cc1)c1c(O)cc(O)cc1O [Phloretin] | 0.05 mM

Target: T1, GLUT1
Assay: Uptake of 3H-glucose by GLUT1 expressed in Xenopus oocytes
Format: cell-based
Set-up: expressed in transfected cells; host or cells: Xenopus oocytes (defolliculated), injected with in vitro transcribed GLUT1 cRNA
Settings: Xenopus oocytes injected with GLUT1 cRNA
Description: To assess transport function of a specific transporter protein, it can be desirable to clone the cDNA and express the protein in cells that have low endogenous transport activity. Human GLUT1 was cloned by PCR, fully sequenced, and subcloned into plasmids that can be used for expression in mammalian cells or Xenopus oocytes. […] For expression in Xenopus oocytes, in vitro GLUT1 cRNA was prepared and injected into defoliculated oocytes. […]

Compound | 3H-glucose uptake versus noninjected controls
O=C[C@H](O)[C@@H](O)[C@H](O)[C@H](O)CO [^3H-glucose] | higher levels
